Source: patent publication US20200338112A1, “METHODS AND MATERIALS FOR TREATING CANCER” (Mayo Foundation for Medical Education and Research, priority 2018, published 2020)
“Also recorded” adds a separate entry of the source. Where a SMILES comes first, the peptide text is derived from it. The star is where a group is joined. Cbz = O=C(OCc1ccccc1)*

Columns and labels:
[1] = system: cells; experiment: Colony formation of cells pretreated with durvalumab, then IR; format: cell-based; details: durvalumab 10 μg/mL, 24 hours before IR, FIG. 1f
Description: FIG. 1a contains colony formation experiments of HCT116 cells under either ionizing radiation (IR) (0, 2, 4 Gy) or cisplatin (0, 0.5, 1 and 2 μM) treatment. […] FIG. 1b contains knockdown and overexpression efficiency validation of PD-L1 in HCT116 using western blot; glyceraldehyde 3-phosphate dehydrogenase (GAPDH) was used as a loading control. […] The formation of rH2AX foci was sustained in PD-L1 depletion group compared to control group, data is represented as mean±s.e.m for each view. FIG. 1e contains an assessment of wild-type (+/+, n=16), PD-L1 heterozygous (+/−, n=24), and PD-L1 knockout (−/−, n=16) BALB/C mice that were exposed to whole body irradiation (7 Gy). Comparisons between groups were made using the Log-rank test. […] Result were based upon colony formation (±s.e.m., n=3).

[2] = system: NBS1 protein level in MDA-MB-231 cells; experiment: Western blot of NBS1 protein level after MG132 treatment; format: cell-based; details: MG132 10 μM for six hours; PD-L1 depleted MDA-MB-231 cells; FIG. 3c
Description: FIGS. 3a and 3b contain western blot analyses of BRCA1, NBS1, RAD50, MRE11, and PD-L1 in HCT116 and MDA-MB-231 cells, respectively, that were infected with lentiviral control shRNA or two different shRNAs targeting PD-L1. GAPDH was used as a loading control. FIG. 3c contains a western blot of NBS1 protein levels in MDA-MB-231 cells infected with lentivirus control shRNA or two different shRNAs targeting PD-L1 were treated with DMSO (control) or MG132 (10 μM) for six hours before proteins were harvested. GAPDH and p53 were used as loading and positive control, respectively. […] GAPDH was used for normalization. FIGS. 3e, 3f, and 3g assess HCT116 cells treated with the transcription inhibitor actinomycin D (5 μg/mL). NBS1 mRNA levels were quantified using RT-PCR. Knockdown of PD-L1 in HCT116 decreased the half-life of NBS1 and BRCA1 mRNA, while restoring PD-L1 in the knockdown cells rescued the phenotype (±s.e.m., n=3). GAPDH was used for normalization. […] The change of NBS1 and BRCA1 mRNA level was not due to transcription, since the transcription of BRCA1 was not changed, while the transcription of NBS1 was even increased after PD-L1 was knocked down (±s.e.m., n=3). GAPDH was used for normalization. FIG. 3i contains representative pictures of the subcellular localization of PD-L1. The immunofluorescence was performed in HCT116 cells. […]

In the case of durvalumab, the “sensitization of cells to IR (DNA damage stimulation)” value [1] is reported as “did not sensitize cells to DNA damage stimulation; also recorded: did not sensitize cells to IR”.

With `CC(C)C[C@@H](C=O)NC(=O)[C@H](CC(C)C)NC(=O)[C@H](CC(C)C)NC(=O)OCc1ccccc1` [MG132] (Cbz-Leu-Leu-Leu-aldehyde) the “recovery of NBS1 protein level in PD-L1 depleted cells” value [2] was “did not recover”.
